The source made the active and inactive calls. The rule behind the calls is not given here. Square brackets hold non-standard residues; d marks the D form. Peptide text beside a SMILES is read from it. * marks the point of attachment. ξ: configuration not given here. C20 diacid = O=C(O)CCCCCCCCCCCCCCCCCCC(=O)*; Stearoyl = CCCCCCCCCCCCCCCCCC(=O)*; Palmitoyl = CCCCCCCCCCCCCCCC(=O)*; ξR = N=C(N)NCCCC(N)C(=O)O
Experiments:
[1] = Stability of compound assessed as Proteinase K (unknown origin) mediated compound degradation by measuring fold change of half-life by HPLC analysis relative to BimBH312-mer peptide; format: ADME
[2] = target: T1, Tyrosine-protein phosphatase non-receptor type 1 (Homo sapiens, UniProt P18031); experiment: Inhibition of N-terminal His tagged recombinant human PTP1B expressed in Escherichia coli using pNPP as substrate assessed as substrate hydrolysis
T1 sequence (P18031 whole entry): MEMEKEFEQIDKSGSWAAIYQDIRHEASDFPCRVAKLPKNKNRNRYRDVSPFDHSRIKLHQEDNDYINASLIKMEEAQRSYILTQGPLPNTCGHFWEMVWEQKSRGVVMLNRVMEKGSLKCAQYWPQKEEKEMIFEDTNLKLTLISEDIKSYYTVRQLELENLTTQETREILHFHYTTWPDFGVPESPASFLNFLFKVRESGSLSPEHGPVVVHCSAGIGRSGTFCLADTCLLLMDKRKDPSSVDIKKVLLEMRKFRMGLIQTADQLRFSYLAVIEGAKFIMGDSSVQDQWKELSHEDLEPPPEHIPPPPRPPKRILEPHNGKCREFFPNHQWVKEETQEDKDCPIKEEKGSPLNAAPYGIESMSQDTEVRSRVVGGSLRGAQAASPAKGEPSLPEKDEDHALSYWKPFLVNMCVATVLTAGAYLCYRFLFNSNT

chymotrypsin [3] = target: chymotrypsin (Homo sapiens, UniProt P17538+P40313+Q6GPI1+Q99895); experiment: Stability of compound assessed as chymotrypsin (unknown origin) mediated compound degradation by measuring half-life by RP-HPLC analysis; format: ADME, protein assay
Carboxypeptidase A1 = target: T2, Carboxypeptidase A1 (Homo sapiens, UniProt P15085); experiment: Stability of compound assessed as carboxypeptidase A (unknown origin) mediated compound degradation by measuring fold change of half-life by RP-HPLC analysis relative to BimBH312-mer peptide; format: ADME
T2 sequence (P15085 whole entry): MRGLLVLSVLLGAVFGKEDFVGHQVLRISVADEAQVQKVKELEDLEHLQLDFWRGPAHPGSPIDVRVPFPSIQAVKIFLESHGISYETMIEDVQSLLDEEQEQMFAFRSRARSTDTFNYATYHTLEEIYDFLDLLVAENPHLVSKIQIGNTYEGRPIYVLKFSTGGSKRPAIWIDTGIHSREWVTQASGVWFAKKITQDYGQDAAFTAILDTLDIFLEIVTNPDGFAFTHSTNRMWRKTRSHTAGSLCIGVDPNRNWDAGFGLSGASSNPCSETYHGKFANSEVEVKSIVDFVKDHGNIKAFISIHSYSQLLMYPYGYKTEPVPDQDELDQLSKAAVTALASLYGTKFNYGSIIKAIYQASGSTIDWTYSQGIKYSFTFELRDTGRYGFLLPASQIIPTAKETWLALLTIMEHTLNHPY

carboxypeptidase A = target: T3, carboxypeptidase A (Homo sapiens, UniProt P15085); experiment: Stability of compound assessed as carboxypeptidase A (unknown origin) mediated compound degradation by measuring half-life by RP-HPLC analysis; format: ADME
T3 sequence (P15085 whole entry): T2 sequence (P15085 whole entry)

[4] = Stability of compound assessed as Pepsin (unknown origin) mediated compound degradation by measuring fold change of half-life by HPLC analysis relative to BimBH312-mer peptide; format: ADME; details: human
Chymotrypsin [5] = target: Chymotrypsin (Homo sapiens, UniProt Q99895+P17538+P40313+Q6GPI1); experiment: Stability of compound assessed as chymotrypsin (unknown origin) mediated compound degradation by measuring fold change of half-life by RP-HPLC analysis relative to BimBH312-mer peptide; format: ADME, protein assay
Pepsin = experiment: Stability of compound assessed as Pepsin (unknown origin) mediated compound degradation by measuring half-life by HPLC analysis; format: ADME; details: human
[6] = target: T4, Tyrosine-protein phosphatase non-receptor type 1 (Homo sapiens) (UniProt P18031); experiment: Inhibition of N-terminal His tagged recombinant human PTP1B expressed in Escherichia coli using pNPP as substrate assessed as substrate hydrolysis at 40 umol/L relative to control; details: dose 40.0 µmol/L
T4 sequence (whole entry): T1 sequence (P18031 whole entry)

Proteinase K = experiment: Stability of compound assessed as Proteinase K (unknown origin) mediated compound degradation by measuring half-life by HPLC analysis; format: ADME
Mus musculus [7] = experiment: Antidiabetic activity against sc dosed C57BL/Ks db/db mouse assessed as reduction in serum insulin level at 1 umol/kg by ELISA analysis; format: functional, organism-based; details: dose 1.0 µmol/kg
Mus musculus [8] = experiment: Antidiabetic activity against sc dosed C57BL/Ks db/db mouse assessed as reduction in C-peptide level at 1 umol/kg by ELISA analysis; format: functional, organism-based; details: dose 1.0 µmol/kg
Mus musculus [9] = experiment: Antidiabetic activity against sc dosed C57BL/Ks db/db mouse assessed as reduction in glucagon level at 1 umol/kg by ELISA analysis; format: functional, organism-based; details: dose 1.0 µmol/kg
Mus musculus [10] = experiment: Antidiabetic activity against C57BL/Ks db/db mouse assessed as redcution in fasting blood glucose level at 1 umol/kg, sc administered once a week and measured on day 15 by glucometer analysis (reference value: 27.3 +/- 2.4 […]); format: functional; details: dose 1 µmol/kg, time 15 day
Mus musculus [11] = experiment: Antidiabetic activity against C57BL/Ks db/db mouse assessed as redcution in fasting blood glucose level at 1 umol/kg, sc administered once a week and measured on day 28 by glucometer analysis (reference value: 32.4 +/- 1.1 […]); format: functional; details: dose 1 µmol/kg, time 28 day
Mus musculus [12] = experiment: Antidiabetic activity against C57BL/Ks db/db mouse assessed as redcution in fasting blood glucose level at 1 umol/kg, sc administered once a week and measured on day 24 by glucometer analysis (reference value: 30.2 +/- 3.2 […]); format: functional; details: dose 1 µmol/kg, time 24 day
Mus musculus [13] = experiment: Antidiabetic activity against C57BL/Ks db/db mouse assessed as redcution in fasting blood glucose level at 1 umol/kg administered subcutaneously and measured immediately by glucometer analysis (reference value: 19.0 +/- 2.7 […]); format: functional; details: dose 1 µmol/kg; route sc
[14] = target: T5, Tyrosine-protein phosphatase non-receptor type 2 (Homo sapiens, UniProt P17706); experiment: Inhibition of recombinant human TC-PTP (1 to 314 residues) expressed in baculovirus infected insect cells using pNPP as substrate assessed as substrate hydrolysis; set-up: species or system Insect cell
T5 sequence (P17706 whole entry): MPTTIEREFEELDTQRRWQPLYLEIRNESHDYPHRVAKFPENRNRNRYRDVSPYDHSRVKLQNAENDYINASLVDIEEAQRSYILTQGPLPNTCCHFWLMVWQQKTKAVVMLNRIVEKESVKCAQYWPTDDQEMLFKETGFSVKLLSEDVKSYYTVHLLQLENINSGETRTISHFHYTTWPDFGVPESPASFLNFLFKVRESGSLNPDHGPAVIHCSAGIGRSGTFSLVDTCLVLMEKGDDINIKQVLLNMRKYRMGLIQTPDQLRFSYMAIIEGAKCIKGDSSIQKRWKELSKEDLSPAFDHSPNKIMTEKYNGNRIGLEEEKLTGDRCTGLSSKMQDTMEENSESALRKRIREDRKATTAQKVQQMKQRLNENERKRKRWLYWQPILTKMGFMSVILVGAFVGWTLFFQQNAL

Mus musculus [15] = experiment: Antidiabetic activity against C57BL/Ks db/db mouse assessed as redcution in fasting blood glucose level at 1 umol/kg, sc administered once a week and measured on day 8 by glucometer analysis (reference value: 27.7 +/- 3.7 […]); format: functional; details: dose 1 µmol/kg, time 8 day
Mus musculus [16] = experiment: Antidiabetic activity against over-night fasted C57BL/ks db/db mouse assessed as suppression of increased blood glucose concentration at 1 uM/kg, sc pretreated with compound for 4 weeks followed by insulin stimulation and measured for 90 mins by insulin tolerance test; format: functional, organism-based; details: time 40410.0 min
Mus musculus [17] = experiment: Antidiabetic activity against C57BL/Ks db/db mouse assessed as redcution in fasting blood glucose level at 1 umol/kg, sc administered once a week and measured on day 26 by glucometer analysis (reference value: 31.4 +/- 2.2 […]); format: functional; details: dose 1 µmol/kg, time 26 day
Mus musculus [18] = experiment: Antidiabetic activity against over-night fasted C57BL/ks db/db mouse assessed as suppression of increased blood glucose concentration at 1 uM/kg, sc pretreated with compound for 4 weeks followed by oral glucose stimulation and measured upto 120 mins by oral glucose tolerance test; format: functional, organism-based; details: time 40440.0 min
Homo sapiens = organism: Homo sapiens; experiment: Selectivity index, ratio of IC50 for inhibition of recombinant human TC-PTP (1 to 314 residues) expressed in baculovirus infected insect cells to IC50 for inhibition of N-terminal His-tagged recombinant human PTP1B expressed in Escherichia coli
Mus musculus [19] = experiment: Antidiabetic activity against C57BL/Ks db/db mouse assessed as redcution in fasting blood glucose level at 1 umol/kg, sc administered once a week and measured on day 22 by glucometer analysis (reference value: 27.4 +/- 1.8 […]); format: functional; details: dose 1 µmol/kg, time 22 day
[20] = target: T6, Tyrosine-protein phosphatase non-receptor type 2 (Homo sapiens) (UniProt P17706); experiment: Inhibition of recombinant human TC-PTP (1 to 314 residues) expressed in baculovirus infected insect cells using pNPP as substrate assessed as substrate hydrolysis at 50 umol/L relative to control; details: Insect cell, dose 50.0 µmol/L
T6 sequence (whole entry): T5 sequence (P17706 whole entry)

SMILES | fold change (FC) [1] | IC50 [2] [nM] | half-life (chymotrypsin [3]) [h] | fold change (FC) (Carboxypeptidase A1) | half-life (carboxypeptidase A) [h] | fold change (FC) [4] | fold change (FC) (Chymotrypsin [5]) | half-life (Pepsin) [h] | inhibition [6] [%] | half-life (Proteinase K) [h] | Activity (Mus musculus [7]) | Activity (Mus musculus [8]) | Activity (Mus musculus [9]) | Fasting blood glucose (Mus musculus [10]) [mmol/L] | Fasting blood glucose level (Mus musculus [11]) [mmol/L] | Fasting blood glucose level (Mus musculus [12]) [mmol/L] | Fasting blood glucose level (Mus musculus [13]) [mmol/L] | IC50 [14] [nM] | Fasting blood glucose level (Mus musculus [15]) [mmol/L] | Activity (Mus musculus [16]) | also measured
CCCCCCCCCCCCCCCC(=O)N[C@H](C(=O)N[C@@H](C)C(=O)N[C@@H](CCC(N)=O)C(=O)N[C@@H](CCC(=O)O)C(=O)N[C@@H](CC(C)C)C(=O)N[C@@H](CCCNC(=N)N)C(=O)N[C@@H](CCCNC(=N)N)C(=O)N[C@H](C(=O)NCC(=O)N[C@@H](CC(=O)O)C(=O)N[C@@H](CCC(=O)O)C(=O)N[C@@H](Cc1ccccc1)C(=O)O)[C@@H](C)CC)[C@@H](C)CC (Palmitoyl-IAQELRRIGDEF-OH) | 56.4 | 960 | 0.56 | 99.7 | 3.19 | 122.7 | 13 | 2.7 | > 50 | 2.82 |  |  |  |  |  |  |  |  |  |  | 
CCCCCCCCCCCCCCCCCC(=O)N[C@H](C(=O)N[C@@H](C)C(=O)N[C@@H](CCC(N)=O)C(=O)N[C@@H](CCC(=O)O)C(=O)N[C@@H](CC(C)C)C(=O)N[C@@H](CCCNC(=N)N)C(=O)NC(CCCNC(=N)N)C(=O)N[C@H](C(=O)NCC(=O)N[C@@H](CC(=O)O)C(=O)N[C@@H](CCC(=O)O)C(=O)N[C@@H](Cc1ccccc1)C(=O)O)[C@@H](C)CC)[C@@H](C)CC (stereo partly drawn) (Stearoyl-IAQELR[ξR]IGDEF-OH) | 28.6 | 120 | 7.33 | 549.1 | 17.6 | 334.5 | 170.5 | 7.36 | > 50 | 1.43 | Active | Active | Active | 12.8 | 19.8 | 18.1 | 20.4 | 13600 | 11.8 | Active | Fasting blood glucose level (Mus musculus [17]): 16.3 mmol/L; Activity (Mus musculus [18]): Active; Ratio IC50 (Homo sapiens): 113; Fasting blood glucose level (Mus musculus [19]): 15.6 mmol/L
CC[C@H](C)[C@H](NC(=O)CCCCCCCCCCCCCCCCCCC(=O)O)C(=O)N[C@@H](C)C(=O)N[C@@H](CCC(N)=O)C(=O)N[C@@H](CCC(=O)O)C(=O)N[C@@H](CC(C)C)C(=O)N[C@@H](CCCNC(=N)N)C(=O)NC(CCCNC(=N)N)C(=O)N[C@H](C(=O)NCC(=O)N[C@@H](CC(=O)O)C(=O)N[C@@H](CCC(=O)O)C(=O)N[C@@H](Cc1ccccc1)C(=O)O)[C@@H](C)CC (stereo partly drawn) ({C20 diacid}-IAQELR[ξR]IGDEF-OH) | 18 | 443 | 0.5 | 7.8 | 0.25 | 69.1 | 11.6 | 1.52 | > 50 | 0.9 | Active | Active | Active | 9.7 | 19.2 | 16 | 18.6 | > 50000 | 11.3 | Active | inhibition [20]: < 50%; Fasting blood glucose level (Mus musculus [17]): 19 mmol/L; Activity (Mus musculus [18]): Active; Ratio IC50 (Homo sapiens): > 113

Reference: ChEMBL document CHEMBL5316338, “Discovery of Novel PTP1B Inhibitors with Once-Weekly Therapeutic Potential for Type 2 Diabetes: Design, Synthesis, and In Vitro and In Vivo Investigations of BimBH3 Peptide Analogues” (J Med Chem, 2023)
